From PubChem BioAssay AID326 (DTP/NCI, 2004)
Several values for one entry are separate records, joined by “and”; a condition that tells them apart may be missing. Identical values can stand only once. Toxic doses and inconclusive results are not listed.

Tested on: CD2F1 mice, P388/DHAQ leukemia ip, median survival T/C
Assay: NCI In Vivo Anticancer Drug Screen. Data for tumor model P388 Leukemia resistant to Dihydroxy Anthracenedione; NSC 299195 (intraperitoneal) in CD2F1 (CDF1) mice
Conditions: endpoint: median survival time, higher = longer survival
Method: The antitumor activity of compounds was measured in mice bearing transplantable tumors. Survival or tumor size were measured and the results are expressed as the measurement made in the treated group (T) divided by the measurement made in the vehicle treated control group (C). The tumor model used in this assay is P388 Leukemia resistant to Dihydroxy Anthracenedione; NSC 299195 (intraperitoneal) in CD2F1 (CDF1) mice

[1] = dose: 4.32 mg/kg/injection, schedule: Q04DX003 (ip), vehicle: saline

For `O=CC(NC(=O)N(CCCl)N=O)C(O)C(O)C(O)CO` (stereo not given), the T/C (dose: 7.2 mg/kg/injection, schedule: Q04DX002 (ip), vehicle: saline) was 201 % of control, the T/C (dose: 12.0 mg/kg/injection, schedule: Q04DX002 (ip), vehicle: saline) was 181 % of control and the T/C (dose: 20.0 mg/kg/injection, schedule: Q04DX002 (ip), vehicle: saline) was 412 % of control.
For `CC[C@@]1(O)C[C@H](OC2CC(N(C)C)C(OC3CC(O)C(OC4CCC(=O)C(C)O4)C(C)O3)C(C)O2)c2c(cc3c(c2O)C(=O)c2c(O)ccc(O)c2C3=O)[C@H]1C(=O)OC` (stereo not given in full), the T/C (dose: 1.56 mg/kg/injection, schedule: Q04DX003 (ip), vehicle: saline) was 116 % of control, the T/C [1] was 162 % of control and the T/C (dose: 7.2 mg/kg/injection, schedule: Q04DX003 (ip), vehicle: saline) was 189 % of control and 190 % of control and 220 % of control.
`COc1cc(NS(C)(=O)=O)ccc1Nc1c2ccccc2nc2ccccc12` was tested, and the T/C (dose: 2.59 mg/kg/injection, schedule: Q04DX002 (ip), vehicle: other) was 108 % of control and 114 % of control (2×), the T/C (dose: 2.59 mg/kg/injection, schedule: Q04DX003 (ip), vehicle: saline) was 107 % of control and the T/C [1] was 117 % of control.
`CN(Cc1cnc2nc(N)nc(N)c2n1)c1ccc(C(=O)N[C@@H](CCC(=O)O)C(=O)O)cc1` was tested, and the T/C (dose: 8.64 mg/kg/injection, schedule: Q04DX003 (ip), vehicle: sodium bicarbonate) was 161 % of control and 192 % of control, the T/C (dose: 14.4 mg/kg/injection, schedule: Q04DX003 (ip), vehicle: sodium bicarbonate) was 168 % of control and 195 % of control and the T/C (dose: 24.0 mg/kg/injection, schedule: Q04DX003 (ip), vehicle: sodium bicarbonate) was 108 % of control and 214 % of control. The T/C (dose: 40.0 mg/kg/injection, schedule: Q04DX003 (ip), vehicle: sodium bicarbonate) was 92 % of control.
For `Cc1c2ccncc2c(C)c2c1[nH]c1ccccc12`, the T/C (dose: 13.0 mg/kg/injection, schedule: Q04DX003 (ip), vehicle: saline with Tween-80) was 101 % of control and 107 % of control, the T/C (dose: 25.9 mg/kg/injection, schedule: Q04DX002 (ip), vehicle: saline with Tween-80) was 97 % of control and the T/C (dose: 32.4 mg/kg/injection, schedule: Q04DX002 (ip), vehicle: Klucel (hydroxypropylcellulose) (HPC)) was 111 % of control. The T/C (dose: 43.2 mg/kg/injection, schedule: Q04DX002 (ip), vehicle: saline with Tween-80) was 105 % of control, the T/C (dose: 54.0 mg/kg/injection, schedule: Q04DX002 (ip), vehicle: Klucel (hydroxypropylcellulose) (HPC)) was 100 % of control and the T/C (dose: 60.0 mg/kg/injection, schedule: Q04DX003 (ip), vehicle: saline with Tween-80) was 116 % of control and 223 % of control and 98 % of control. The T/C (dose: 72.0 mg/kg/injection, schedule: Q04DX002 (ip), vehicle: saline with Tween-80) was 112 % of control, the T/C (dose: 90.0 mg/kg/injection, schedule: Q04DX002 (ip), vehicle: Klucel (hydroxypropylcellulose) (HPC)) was 88 % of control and the T/C (dose: 120.0 mg/kg/injection, schedule: Q04DX002 (ip), vehicle: saline with Tween-80) was 114 % of control. The T/C (dose: 150.0 mg/kg/injection, schedule: Q04DX002 (ip), vehicle: Klucel (hydroxypropylcellulose) (HPC)) was 83 % of control.
`N[C@@H](Cc1ccc(N(CCCl)CCCl)cc1)C(=O)O` was tested, and the T/C (dose: 1.94 mg/kg/injection, schedule: Q04DX002 (ip), vehicle: saline) was 114 % of control and 119 % of control and 120 % of control, the T/C (dose: 1.94 mg/kg/injection, schedule: Q04DX003 (ip), vehicle: saline) was 106 % of control and the T/C (dose: 3.24 mg/kg/injection, schedule: Q04DX002 (ip), vehicle: saline) was 117 % of control and 118 % of control. The T/C (dose: 3.24 mg/kg/injection, schedule: Q04DX003 (ip), vehicle: saline) was 117 % of control, the T/C (dose: 9.0 mg/kg/injection, schedule: Q04DX002 (ip), vehicle: saline) was 157 % of control and 160 % of control and 163 % of control and the T/C (dose: 9.0 mg/kg/injection, schedule: Q04DX003 (ip), vehicle: saline) was 157 % of control. The T/C (dose: 15.0 mg/kg/injection, schedule: Q04DX002 (ip), vehicle: saline) was 102 % of control and 118 % of control and the T/C (dose: 15.0 mg/kg/injection, schedule: Q04DX003 (ip), vehicle: saline) was 152 % of control and 156 % of control.
`O=C1c2ccccc2C(=O)c2c(NCCNCCO)ccc(O)c21` was tested, and the T/C (dose: 19.4 mg/kg/injection, schedule: Q04DX003 (ip), vehicle: saline) was 121 % of control, the T/C (dose: 32.4 mg/kg/injection, schedule: Q04DX003 (ip), vehicle: saline) was 107 % of control and the T/C (dose: 54.0 mg/kg/injection, schedule: Q04DX003 (ip), vehicle: saline) was 90 % of control.
`CC[C@]1(O)C[C@H]2CN(CCc3c([nH]c4ccccc34)[C@@](C(=O)OC)(c3cc4c(cc3OC)N(C=O)[C@H]3[C@@](O)(C(=O)OC)[C@H](OC(C)=O)[C@]5(CC)C=CCN6CC[C@]43[C@@H]65)C2)C1` was tested, and the T/C (dose: 0.43 mg/kg/injection, schedule: Q04DX003 (ip), vehicle: saline) was 160 % of control, the T/C (dose: 0.72 mg/kg/injection, schedule: Q04DX003 (ip), vehicle: saline) was 150 % of control and 158 % of control and 169 % of control and the T/C (dose: 1.2 mg/kg/injection, schedule: Q04DX003 (ip), vehicle: saline) was 161 % of control and 168 % of control and 172 % of control. For the same compound, the T/C (dose: 2.0 mg/kg/injection, schedule: Q04DX003 (ip), vehicle: saline) was 168 % of control and 169 % of control and 195 % of control.
`COC(=O)C[C@](O)(CCCC(C)(C)O)C(=O)O[C@@H]1C(OC)=C[C@]23CCCN2CCc2cc4c(cc2[C@H]13)OCO4` was tested, and the T/C (dose: 3.0 mg/kg/injection, schedule: Q04DX003 (ip), vehicle: saline) was 116 % of control and the T/C (dose: 3.33 mg/kg/injection, schedule: Q04DX003 (ip), vehicle: saline) was 154 % of control.
`CO[C@@]12[C@H](COC(N)=O)C3=C(C(=O)C(C)=C(N)C3=O)N1C[C@@H]1N[C@@H]12` was tested, and the T/C (dose: 1.08 mg/kg/injection, schedule: Q04DX002 (ip), vehicle: saline) was 95 % of control, the T/C (dose: 1.62 mg/kg/injection, schedule: Q04DX003 (ip), vehicle: saline) was 166 % of control and the T/C (dose: 1.8 mg/kg/injection, schedule: Q04DX002 (ip), vehicle: saline) was 108 % of control. The T/C (dose: 2.7 mg/kg/injection, schedule: Q04DX003 (ip), vehicle: saline) was 172 % of control, the T/C (dose: 3.0 mg/kg/injection, schedule: Q04DX002 (ip), vehicle: saline) was 103 % of control and the T/C (dose: 4.5 mg/kg/injection, schedule: Q04DX003 (ip), vehicle: saline) was 168 % of control. For the same compound, the T/C (dose: 5.0 mg/kg/injection, schedule: Q04DX002 (ip), vehicle: saline) was 117 % of control and the T/C (dose: 7.5 mg/kg/injection, schedule: Q04DX003 (ip), vehicle: saline) was 108 % of control.
With `CC[C@](O)(C(=O)O)c1cc2n(c(=O)c1CO)Cc1cc3ccccc3nc1-2` the T/C (dose: 6.48 mg/kg/injection, schedule: Q04DX003 (ip), vehicle: saline) was 102 % of control and 117 % of control and 121 % of control, the T/C (dose: 7.78 mg/kg/injection, schedule: Q04DX003 (ip), vehicle: saline) was 121 % of control and the T/C (dose: 10.8 mg/kg/injection, schedule: Q04DX003 (ip), vehicle: saline) was 115 % of control and 120 % of control. For the same compound, the T/C (dose: 18.0 mg/kg/injection, schedule: Q04DX003 (ip), vehicle: saline) was 115 % of control, the T/C (dose: 30.0 mg/kg/injection, schedule: Q04DX003 (ip), vehicle: saline) was 155 % of control and the T/C (dose: 36.0 mg/kg/injection, schedule: Q04DX003 (ip), vehicle: saline) was 164 % of control. For the same compound, the T/C (dose: 50.0 mg/kg/injection, schedule: Q04DX003 (ip), vehicle: saline) was 180 % of control.
`CO[C@H](C(=O)[C@@H](O)[C@@H](C)O)[C@@H]1Cc2cc3cc(OC4CC(OC5CC(O)C(O)C(C)O5)C(O)C(C)O4)c(C)c(O)c3c(O)c2C(=O)[C@H]1OC1CC(OC2CC(OC3CC(C)(O)C(O)C(C)O3)C(O)C(C)O2)C(O)C(C)O1` (stereo not given in full) was tested, and the T/C (dose: 0.22 mg/kg/injection, schedule: Q01DX005 (ip), vehicle: clinical formulation) was 112 % of control, the T/C (dose: 0.36 mg/kg/injection, schedule: Q01DX005 (ip), vehicle: clinical formulation) was 110 % of control and the T/C (dose: 0.6 mg/kg/injection, schedule: Q01DX005 (ip), vehicle: clinical formulation) was 120 % of control. The T/C (dose: 1.0 mg/kg/injection, schedule: Q01DX005 (ip), vehicle: clinical formulation) was 123 % of control.
`O=P1(N(CCCl)CCCl)NCCCO1` (stereo not given) was tested, and the T/C (dose: 32.4 mg/kg/injection, schedule: Q04DX002 (ip), vehicle: saline) was 189 % of control, the T/C (dose: 38.9 mg/kg/injection, schedule: Q04DX003 (ip), vehicle: saline) was 224 % of control and the T/C (dose: 43.2 mg/kg/injection, schedule: Q04DX002 (ip), vehicle: saline) was 203 % of control. For the same compound, the T/C (dose: 54.0 mg/kg/injection, schedule: Q04DX002 (ip), vehicle: saline) was 255 % of control, the T/C (dose: 64.8 mg/kg/injection, schedule: Q04DX003 (ip), vehicle: saline) was 353 % of control and the T/C (dose: 72.0 mg/kg/injection, schedule: Q04DX002 (ip), vehicle: saline) was 201 % of control. For the same compound, the T/C (dose: 90.0 mg/kg/injection, schedule: Q04DX002 (ip), vehicle: saline) was 336 % of control, the T/C (dose: 108.0 mg/kg/injection, schedule: Q04DX003 (ip), vehicle: saline) was 463 % of control and the T/C (dose: 120.0 mg/kg/injection, schedule: Q04DX002 (ip), vehicle: saline) was 223 % of control. For the same compound, the T/C (dose: 150.0 mg/kg/injection, schedule: Q04DX002 (ip), vehicle: saline) was 200 % of control and the T/C (dose: 200.0 mg/kg/injection, schedule: Q04DX002 (ip), vehicle: saline) was 380 % of control.
